No end group written: not given here.
How the values were obtained:
[1] = tested on: HLA-DR on the surface of EBV-transformed B cells; assay: Direct binding of FITC-labeled TP5 to EBV-transformed B cells (flow cytometry); parameters: species or system human
Description: Therefore, a quantitative flow cytometric assay was used to get a better insight into the binding affinity of TP5 to HLA-DR on the surface of EBV-transformed B cells. […] Simultaneously, a correlation with R^2 = 0.9903 and a slope of 0.01311 were obtained. We then compared the specific binding of FITC-labeled TP5 to HLA-DR.
EBV-transformed B cells expressing HLA-DR molecules were maintained in RPMI 1640 containing 2 mM L-glutamine (HyClone Laboratories, UT, USA) supplemented with 10% standard FBS (HyClone Laboratories, UT, USA) at 37°C and in 5% CO2. Expression of HLA-DR was verified using mAb-DR L243 labeled with FITC (Pharmingen, San Diego, USA), by incubation for 45 min on ice followed by CLSM and FCM.
EBV-transformed B cells (3×10^5 per sample) were incubated with various concentrations of FITC-labeled TP5 in binding buffer for 2 h at 37°C. Thereafter, the cells were washed twice and resuspended in 500 µl PBS, followed by flow cytometric analysis using a FACSCan analyzer (Becton Dickinson Immunochemical Systems, Mountain View, USA). A total of ten thousand events were acquired for each sample. The MFI was used to evaluate the binding ability of FITC-labeled TP5 to APC.

[2] = tested on: EBV-transformed B cells expressing HLA-DR; assay: Cellular peptide loading assay (CLSM uptake); type: cell-based, human; conditions: 10 µM, 2 h at 37°C, excitation 488 nm
Description: To validate the ability of FITC-labeled TP5 to load on EBV-transformed B cells expressing HLA-DR, a qualitative CLSM assay was used to examine the fluorescent signal of EBV-transformed B cells. The surface fluorescence was hardly observed from the cells in the absence of FITC-labeled TP5 at the excitation of 488 nm (Fig. 1A).
We harvested 3×10^5 cells, washed twice with phosphate-buffered saline (PBS) buffer (pH 7.4) supplemented with 0.1% BSA and 0.05% NaN3. Ten µM FITC- labeled TP5 was added to the treated cells in PBS (pH 7.4) containing 1% BSA (binding buffer), then incubated for 2 h at 37°C. Thereafter, the cells were washed twice and resuspended in 500 µl PBS, followed by CLSM analysis using Leica Microsystems (TCS SP2, Heidelberg, Germany).

FITC-labeled TP5: TP5 conjugated with fluorescein isothiocyanate (FITC) (RKDVY; also: FITC label, position not given here)
cells stained above the background ([1]; flow cytometry histogram of fluorescence intensities, EBV-transformed B cells (Fig. 4)): 94%
increase in mean fluorescence intensity (MFI) above background ([1]; flow cytometry, EBV-transformed B cells versus PBS alone (Fig. 4)): approximately 3 orders of magnitude
surface fluorescence of cells (uptake) [2]: strong surface fluorescence

— article PMC2137936, “Molecular Analysis of Thymopentin Binding to HLA-DR Molecules” (PLoS ONE, 2007)
